Source: ChEMBL document CHEMBL3507680, “University of Dundee, Gates Library screen for HepG2 cell viability”

Assay: Human HepG2 cell viability assay in 384 well format
Format: toxicity, cell-based
Parameters: dose 125 nL, time 70.5 hour; concentration not given beside the values
Conditions: HepG2 cells, read-out: Inhibition

SMILES | cytotoxicity at 70.5 h [%]
O=C(CCc1ccc(OC(F)(F)F)cc1)N1CCCS1(=O)=O | -3.82
CNc1nc(CNC(=O)Nc2cccc(CC(F)(F)F)c2)cs1 | -4.82
Cc1ccc(C(=O)N2CCCN(C)c3ccc(F)cc32)o1 | -17.9
Cc1cc(C2CCNCC2)nc(-c2ccsc2)n1 | -8.24
CCc1nnc2n1CCN(C(=O)c1cc3cc(F)ccc3[nH]1)C2 | 0.76
Cc1ccoc1C(=O)N1C[C@@H]2COC[C@]2(CNS(C)(=O)=O)C1 | -3.33
COCC(=O)NC[C@H]1C[C@@H]2CCN1C[C@@H]2CN(C)c1ccccc1 | 0.807
O=C(C(CNCc1ccccn1)c1ccccc1)N1CCOCC1 (centres undefined) | 0.375
C=Cc1cccc(CN2C[C@H]3CC[C@@H]2CN(Cc2c(C)noc2C)C3)c1 | -0.99
O=C(NCc1cccs1)[C@H]1CC[C@@H]2[C@@H](CCN2Cc2ccoc2)O1 | 2.32
O=C(c1c2c(N3CCCC3)ncnc2n2ccccc12)N1CCCC1 | -11
CN(C)C(=O)c1ccc2c(c1)N(C)C(CC(=O)NCCC(C)(C)C)CO2 (centres undefined) | -5.81
Cc1cc(N2CCN(Cc3ccc(C)o3)CC2)cc(C)n1 | -9.4
CCC(O)C1CCN(C(=O)Nc2nc(-c3ccccc3)ns2)CC1 (centres undefined) | 13.7
CC(C)N1CCC(CC(=O)N2CCC(C(O)c3nccn3C)CC2)CC1 (centres undefined) | -3.4
CN(C)CCOCc1cncc2c1CCN(C1CCOCC1)C2 | -11.2
COCC(=O)NC[C@H]1CC[C@H](c2ccnc3ncnn32)CC1 | -8.99
CCCn1cnnc1CNC(=O)C1COc2cc(OC)ccc2C1 (centres undefined) | 18.3
O=C(NC1CC1)[C@H]1CN(Cc2ccc3c(c2)OCO3)C[C@H]2OCC[C@@H]12 | -1.23
O=C(Nc1ccccn1)c1csc(NC2CCCC2)n1 | 1.59
CS(=O)(=O)CCN1CCc2c(ncn2C2CC2)C1 | -3.42
O=C(C1CC(=O)N(c2ccccc2Br)C1)N1CCC2(CC1)OCCO2 (centres undefined) | -6.47
CCc1ccc(CN2CCC3(CC(C(=O)NCC(C)C)=NO3)C2)o1 (centres undefined) | -7.77
O=C(NC1CC1)[C@@H]1CCO[C@@H]2CCN(Cc3ccco3)C[C@H]21 | -13.9
Cc1nn(C)c(Cl)c1C1CCCN1C(=O)c1ccc(C(N)=O)cn1 (centres undefined) | 54.9
Cc1noc(C(C)C)c1C(=O)NS(=O)(=O)c1ccc(Cl)cc1 | -3.31
CCCC(=O)N1CCC2(CC1)CC(NC(C)=O)c1ccccc1O2 (centres undefined) | -13.7

SMILES | cytotoxicity at 70.5 h [%]
CCC1=N[C@@]2(CC[C@@H]3CN(CC(C)C)C[C@@H]32)C(=O)N1 | -2.78
CC(C)N1C[C@@H](F)[C@@H](OCc2nc3ncccc3[nH]2)C1 | -0.523
Cc1ncsc1CN1C[C@H](NC(=O)C2CCOCC2)[C@@H](C(C)C)C1 | -14.2
COc1cccc(CN2CCOC(Cn3nc(C)cc3C)C2)c1 (centres undefined) | -6.54
CC(=O)N1CCCC1c1nccnc1Nc1cccc(C)n1 (centres undefined) | -16.6
CC(C)c1cc(C(=O)N(c2ccc(F)cn2)C2CCOCC2)nn1C | 3.21
CC(C)c1cc(N2CCC(NS(C)(=O)=O)C2)nc(C(C)C)n1 (centres undefined) | -10.9
COC1CCN(c2ccc(NC(=O)Cn3cccn3)cc2)CC1 | -8
CCS(=O)(=O)N1CC[C@H](OC)[C@H]2CN(Cc3ccncc3)C[C@H]21 | -3.99
O=C(c1ccsc1)N1CCO[C@@H]2CN(Cc3nccs3)C[C@@H]2C1 | -3.17
Cc1cc(-c2cnc(NCc3ccccn3)nc2C(C)C)on1 | -11.7
CN(C)c1ccc2c(c1)CN(C(=O)c1ccnnc1)C2c1cnco1 (centres undefined) | -13.8
O[C@H]1CN(Cc2ccc3c(c2)OCCO3)CC[C@@]12CCCO2 | -2.15
Cc1ncccc1Oc1nccnc1C1CCN(S(C)(=O)=O)CC1 | -5.66
CCOc1ccc(CCCC(=O)N2CCC(C(=O)NC)C2)cc1C (centres undefined) | -8.84
Cn1cncc1-c1nnc([C@H]2CCN(CC3CCCCC3)C2)o1 | -1.28
C1CC(c2nnc(CN3CCCC3c3noc(C4CC4)n3)o2)C1 (centres undefined) | -7.54
CC(C)Oc1ncccc1CNC(=O)N1CCC(n2cccc2)CC1 | -0.649
Cc1n[nH]c(C2CN(C(=O)Cn3ccccc3=O)CCO2)n1 (centres undefined) | 7.95
O=C(NCC1CC1)C1CN(C(=O)c2ccco2)CC12CCOCC2 (centres undefined) | -1.19
CC(Cc1cccc(F)c1)C(=O)NS(=O)(=O)c1ccc(F)cc1 (centres undefined) | 11.8
Cc1cnn(CC2CCCN2CC(=O)Nc2cc(C(C)(C)C)no2)c1 (centres undefined) | 5.18
Cc1nn(CC(C)C)c(N(C)C)c1CNCCCNS(C)(=O)=O | 31.6
Cc1nc(-c2nnc[nH]2)sc1C(=O)N(Cc1cccnc1)C1CC1 | 9.64
CSCCc1nc(-c2ccc3c(c2)OCO3)n(C)n1 | -4.21
CC(C)[C@H]1COC(=O)N1Cc1nnc(-c2ccccc2)o1 | -1.91
CCNc1ncc(CN2C[C@@H](CN3CCC(CO)CC3)[C@@H](CO)C2)cn1 | -2.73

SMILES | cytotoxicity at 70.5 h [%]
O=C(c1cccs1)N1CCOCC2(C1)CN(c1cccnc1)C(=O)CO2 (centres undefined) | -16.5
CC(NC(=O)NCCCO)c1ccc2c(c1)OCCO2 (centres undefined) | -10.1
O=C(CN1C(=O)c2ccccc2CS1(=O)=O)c1ccc(Cl)cc1 | 7.63
O=C1NC(C(=O)NCc2cccnc2Oc2ccccc2F)CO1 (centres undefined) | -18.5
CC(C)c1cc(NC(=O)c2ccc(NC3CC3)nc2)[nH]n1 | -5.73
CCc1ncc(C(=O)N2CCCN(C3CCCC3)CC2)cn1 | -14.6
Cc1ccc2c(c1)c(C)cc(=O)n2CCC(=O)O | -6.14
Cc1nc(NCc2ccc(C)o2)cc(C2CCNCC2)n1 | -23.6
COC(=O)[C@@H]1CCCN1C(=O)c1cn(CCCc2ccccc2)nn1 | -19.4
Cn1cc(CN2CCC3(CCN(c4cnn(C)c4)C3=O)C2)cn1 (centres undefined) | -10.8
CC(=O)N1CCC(N2CCOC[C@H]2c2nc(C(C)(C)C)c[nH]2)CC1 | -2.09
CC(C)c1cc(NCC2(N(C)C)CCCC2)ncn1 | -2.85
CC(C)c1cc(NCC2(CO)CCCC2)ncn1 | -10.6
CCC(=O)N1CCC2(CC1)CN(CCO)Cc1ccccc12 | 1.97
Cn1nnc(C2(NC(=O)c3ccccc3)CCCC2)n1 | -8.79
CCN(Cc1ccc2c(c1)OCO2)Cc1nc2c(cnn2C)c(=O)[nH]1 | 7.27
Cc1nnn2c1COC(CNCc1ccncc1)C2 (centres undefined) | -15.7
Cc1nc(C2CCCNC2)cc(N2CCc3nc(N)sc3C2)n1 (centres undefined) | 17.4
Cc1nsc(C(=O)NCCc2ccc(F)cc2)n1 | -1.44
O=C(CCc1ccccn1)NCC(O)c1ccc(Cl)cc1Cl (centres undefined) | -1.56
c1cnc(N2CCO[C@H]3CN(CC4CCOCC4)C[C@H]32)nc1 | -3.7
CC(C)C(=O)NCC(=O)NCC1CCN(c2cnn(C)c(=O)c2)CC1 | 23.1
Cc1ccc(CN2CCc3c(nnn3C)C2COCc2ccccc2)s1 (centres undefined) | -7.66
Cc1cccc(C(=O)N2CCCC2c2c(C)n[nH]c2C)c1 (centres undefined) | -2.31
CCS(=O)(=O)N1CCC2(CN(c3ccsc3)C(=O)CN2C)C1 (centres undefined) | -124
